Test results from patent publication EP4745135A1 (Gluetacs Therapeutics (Shanghai) Co., Ltd., priority 2023, dated 2025).

Columns and labels:
[1] = system: Human multiple myeloma peripheral blood B lymphocyte cell (RPMI-8226); test: Tumor cell proliferation inhibition (CellTiter-Meiluncell luminescent cell viability assay); conditions: RPMI-8226, 96 h
[2] = molecular target: T1, human Cereblon WT GST-tagged protein (Homo sapiens, UniProt Q96SW2); test: CRBN-binding affinity, HTRF (CEREBLON BINDING kit); conditions: for inhibition at 0.5 µM: read-out: Inhibition Rate at 0.5 µM (%); for inhibition at 2 µM: read-out: Inhibition Rate at 2 µM (%)
T1 construct: purchased CISBIO 64BDCRBNPEH

IKZF1 = molecular target: T2, IKZF1 (Homo sapiens, UniProt Q13422+Q96SW2); test: Western blot, degradation of substrate protein in hPBMCs; type: cell-based
T2 construct: effects of the compounds of the present disclosure on the expression of target proteins in cells; endogenous in cells; host or cells: human PBMCs (Milecell Biotechnologies)

IKZF3 = molecular target: T3, IKZF3 (Homo sapiens, UniProt Q96SW2+Q9UKT9); test: as above; type: cell-based
T3 construct: effects of the compounds of the present disclosure on the expression of target proteins in cells; endogenous in cells; host or cells: human PBMCs (Milecell Biotechnologies)

WEE1 = molecular target: T4, WEE1 (Homo sapiens, UniProt P30291+Q96SW2); test: as above; type: cell-based
T4 construct: effects of the compounds of the present disclosure on the expression of target proteins in cells; endogenous in cells; host or cells: human PBMCs (Milecell Biotechnologies)

CK1α = molecular target: T5, CK1α (Homo sapiens, UniProt P48729+Q96SW2); test: as above; type: cell-based
T5 construct: effects of the compounds of the present disclosure on the expression of target proteins in cells; endogenous in cells; host or cells: human PBMCs (Milecell Biotechnologies)

IKZF2 = molecular target: T6, IKZF2 (Homo sapiens, UniProt Q96SW2+Q9UKS7); test: as above; type: cell-based
T6 construct: effects of the compounds of the present disclosure on the expression of target proteins in cells; endogenous in cells; host or cells: human PBMCs (Milecell Biotechnologies)

GSPT1 = test: as above; type: cell-based, Human
[3] = system: Human myeloid monocytic leukemia cell (MV-4-11); test: Tumor cell proliferation inhibition (CellTiter-Meiluncell luminescent cell viability assay); conditions: MV4-11, 96 h; for inhibition at 0.01 µM: read-out: Inhibition Rate at 10 nM (%); for inhibition at 0.5 µM: read-out: Inhibition Rate at 500 nM (%)
[4] = system: Human breast cancer cell (MCF-7); test: as above; conditions: MCF7, 96 h; for inhibition at 0.01 µM: read-out: Inhibition Rate at 10 nM (%); for inhibition at 0.5 µM: read-out: Inhibition Rate at 500 nM (%)
[5] = system: Human multiple myeloma cell (MM.1S); test: as above; conditions: for inhibition at 0.01 µM / inhibition at 0.5 µM: Homo sapiens, MM1.S, 96 h; for inhibition at 0.01 µM: read-out: Inhibition Rate at 10 nM (%); for inhibition at 0.5 µM: read-out: Inhibition Rate at 500 nM (%)
[6] = system: Human acute T lymphocytic leukemia cell (Molt4); test: as above; conditions: MOLT-4, 96 h
Experimental: The tumor cells used herein were cultured in a cell culture medium listed in table 2 at 37°C in an incubator with 5% CO2. Prior to experimentation, all cell lines used were correctly identified by STR profiling, and tested negative for mycoplasma contamination using a mycoplasma detection kit through routine screenings.
The IC50 values of the compounds of the present disclosure (including the compounds in Table 1 and Examples) were determined using the CellTiter-Meiluncell Luminescent Cell Viability Assay Kit from Dalian Meilun Biotech Co., Ltd. The detailed procedure is as follows: Tumor cells were seeded in 96-well cell culture plates at the densities specified in Table 3. On the following day, the test compounds of the present disclosure were subjected to serial dilution. The dilution can be performed according to one of the following two methods: • (1) The first dilution method: The test compounds of the present disclosure (including the compounds in Table 1 and Examples) were subjected to 5-fold serial dilutions starting from a highest concentration of 2000 µM, resulting in a total of 9 concentrations from high to low (2000, 400, 80, 16, 3.2, 0.64, 0.128, 0.0256, 0.00512 µM). Subsequently, 0.5 µL of the test compound dilution was transferred into the 96-well plate containing the cells, with each well containing 100 µL of cell culture medium. […] Into the 96-well plate, the diluted test compounds and corresponding detection reagents were added, resulting in final test compound concentrations of 500 nM and 10 nM, respectively. The experimental procedure is described below using the diluted 2 µM test compound as an example.
0.5 µL of the aforementioned diluted compound of the present disclosure (including the compounds in Table 1 and Examples) was added to the seeded cells in 100 µL of medium, yielding a final test compound concentration of 10 nM. After the cells were treated with the compounds of the present disclosure for a specified period, the cell viability assay reagent was added to the culture medium according to the kit's instructions to determine cell viability. […] All controls were treated using the same procedure as the compounds of the present disclosure. The growth inhibition curves for the compounds of the present disclosure were plotted using Prism GraphPad software, and the IC50 values were calculated therefrom.

[7] = read-out: Inhibition Rate at 10 nM (%)
[8] = read-out: Inhibition Rate at 500 nM (%)
[9] = Western blot, 24 hours of compound treatment, compounds tested at 50 nM and 500 nM (concentration for the table not stated)
[10] = 24 hours treatment, compounds at 50 nM and 500 nM (concentration behind the class not stated)

T3 sequence (Q9UKT9 whole entry): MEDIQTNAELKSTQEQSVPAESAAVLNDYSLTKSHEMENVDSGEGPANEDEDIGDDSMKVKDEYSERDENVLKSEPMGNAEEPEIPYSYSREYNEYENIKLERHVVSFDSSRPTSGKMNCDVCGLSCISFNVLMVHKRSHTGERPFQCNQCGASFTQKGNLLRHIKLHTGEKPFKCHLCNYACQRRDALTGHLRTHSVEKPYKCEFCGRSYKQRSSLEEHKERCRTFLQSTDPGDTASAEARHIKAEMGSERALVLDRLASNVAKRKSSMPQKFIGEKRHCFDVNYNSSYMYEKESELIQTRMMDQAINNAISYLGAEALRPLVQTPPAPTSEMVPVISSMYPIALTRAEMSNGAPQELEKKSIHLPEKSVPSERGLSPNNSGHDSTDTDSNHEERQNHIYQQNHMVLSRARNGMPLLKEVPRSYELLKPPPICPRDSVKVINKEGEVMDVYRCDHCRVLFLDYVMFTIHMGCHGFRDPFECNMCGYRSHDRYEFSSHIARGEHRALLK
T3 sequence (Q96SW2 whole entry): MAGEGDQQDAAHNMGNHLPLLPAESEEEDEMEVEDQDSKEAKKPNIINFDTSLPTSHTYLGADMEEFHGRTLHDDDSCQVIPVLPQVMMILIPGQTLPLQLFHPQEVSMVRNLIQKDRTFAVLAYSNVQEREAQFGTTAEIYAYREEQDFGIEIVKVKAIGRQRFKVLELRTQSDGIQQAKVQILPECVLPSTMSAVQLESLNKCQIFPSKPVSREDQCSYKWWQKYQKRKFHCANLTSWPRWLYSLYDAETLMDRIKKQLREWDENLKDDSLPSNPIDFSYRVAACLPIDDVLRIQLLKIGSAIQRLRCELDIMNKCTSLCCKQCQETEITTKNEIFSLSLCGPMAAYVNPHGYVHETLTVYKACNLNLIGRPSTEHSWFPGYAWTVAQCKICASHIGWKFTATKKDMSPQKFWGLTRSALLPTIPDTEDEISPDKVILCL
T3 sequence (Q16531 whole entry partner): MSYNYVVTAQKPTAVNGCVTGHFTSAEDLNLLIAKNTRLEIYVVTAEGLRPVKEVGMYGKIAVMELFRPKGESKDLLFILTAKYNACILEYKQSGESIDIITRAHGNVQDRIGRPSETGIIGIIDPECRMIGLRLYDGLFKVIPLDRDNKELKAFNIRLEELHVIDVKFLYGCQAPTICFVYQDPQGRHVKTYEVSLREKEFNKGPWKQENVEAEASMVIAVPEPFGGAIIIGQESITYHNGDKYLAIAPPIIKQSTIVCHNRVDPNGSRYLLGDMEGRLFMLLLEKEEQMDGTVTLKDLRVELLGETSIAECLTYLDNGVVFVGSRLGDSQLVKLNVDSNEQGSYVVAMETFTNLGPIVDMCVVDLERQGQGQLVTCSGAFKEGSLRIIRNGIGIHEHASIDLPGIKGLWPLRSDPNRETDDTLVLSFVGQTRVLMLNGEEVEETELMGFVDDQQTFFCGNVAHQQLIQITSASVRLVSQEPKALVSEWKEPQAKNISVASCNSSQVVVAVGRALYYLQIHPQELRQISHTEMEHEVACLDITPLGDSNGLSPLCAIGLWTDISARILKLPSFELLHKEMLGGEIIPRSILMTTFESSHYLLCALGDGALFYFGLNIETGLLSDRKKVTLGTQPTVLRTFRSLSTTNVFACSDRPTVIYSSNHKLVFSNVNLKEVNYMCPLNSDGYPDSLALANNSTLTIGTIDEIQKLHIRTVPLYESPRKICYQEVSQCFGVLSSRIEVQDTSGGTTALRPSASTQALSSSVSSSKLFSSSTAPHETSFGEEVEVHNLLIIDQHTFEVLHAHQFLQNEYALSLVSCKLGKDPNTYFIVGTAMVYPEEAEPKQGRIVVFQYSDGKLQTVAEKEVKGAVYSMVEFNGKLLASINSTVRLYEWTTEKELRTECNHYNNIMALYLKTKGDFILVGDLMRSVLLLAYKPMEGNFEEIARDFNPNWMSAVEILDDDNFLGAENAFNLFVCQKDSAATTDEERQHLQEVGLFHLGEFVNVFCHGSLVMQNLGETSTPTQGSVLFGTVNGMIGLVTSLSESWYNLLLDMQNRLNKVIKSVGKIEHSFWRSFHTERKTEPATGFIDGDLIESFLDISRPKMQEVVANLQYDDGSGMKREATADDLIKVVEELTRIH
T4 sequence (P30291 whole entry): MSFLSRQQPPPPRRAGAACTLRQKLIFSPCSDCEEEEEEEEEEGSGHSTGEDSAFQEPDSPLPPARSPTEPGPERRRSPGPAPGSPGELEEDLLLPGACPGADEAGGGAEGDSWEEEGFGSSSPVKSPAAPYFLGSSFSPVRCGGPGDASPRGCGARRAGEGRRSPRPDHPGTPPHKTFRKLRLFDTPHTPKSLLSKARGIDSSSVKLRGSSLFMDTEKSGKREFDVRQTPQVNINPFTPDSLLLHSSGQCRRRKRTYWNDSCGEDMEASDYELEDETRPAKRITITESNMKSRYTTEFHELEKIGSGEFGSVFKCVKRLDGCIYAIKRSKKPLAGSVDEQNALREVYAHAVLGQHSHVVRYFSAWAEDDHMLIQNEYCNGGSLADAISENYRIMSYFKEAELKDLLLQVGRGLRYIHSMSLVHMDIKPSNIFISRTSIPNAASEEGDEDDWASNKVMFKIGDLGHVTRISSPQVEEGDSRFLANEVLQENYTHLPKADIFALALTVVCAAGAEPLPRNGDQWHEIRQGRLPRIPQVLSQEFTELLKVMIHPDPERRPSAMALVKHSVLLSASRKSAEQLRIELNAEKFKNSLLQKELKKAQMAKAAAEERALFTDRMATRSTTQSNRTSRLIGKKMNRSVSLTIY
T4 sequence (Q96SW2 whole entry): as the sequence (Q96SW2 whole entry) above
T4 sequence (Q16531 whole entry partner): as the sequence (Q16531 whole entry partner) above
T6 sequence (Q9UKS7 whole entry): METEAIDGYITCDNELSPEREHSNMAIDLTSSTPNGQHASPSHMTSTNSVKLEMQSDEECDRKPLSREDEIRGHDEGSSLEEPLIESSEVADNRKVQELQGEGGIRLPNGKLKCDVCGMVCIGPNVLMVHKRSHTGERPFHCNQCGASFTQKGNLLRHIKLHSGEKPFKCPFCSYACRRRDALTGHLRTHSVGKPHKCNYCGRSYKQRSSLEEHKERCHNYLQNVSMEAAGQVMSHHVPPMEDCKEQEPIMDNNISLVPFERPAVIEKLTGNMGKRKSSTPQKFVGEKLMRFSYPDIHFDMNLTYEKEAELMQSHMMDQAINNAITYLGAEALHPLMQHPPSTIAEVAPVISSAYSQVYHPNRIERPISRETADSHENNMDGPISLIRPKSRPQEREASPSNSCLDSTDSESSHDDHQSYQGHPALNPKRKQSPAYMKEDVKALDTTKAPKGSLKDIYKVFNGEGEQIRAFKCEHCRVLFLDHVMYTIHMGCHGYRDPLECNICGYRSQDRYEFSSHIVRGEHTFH
T6 sequence (Q96SW2 whole entry): as the sequence (Q96SW2 whole entry) above
T6 sequence (Q16531 whole entry partner): as the sequence (Q16531 whole entry partner) above
T1 sequence (Q96SW2 whole entry): as the sequence (Q96SW2 whole entry) above
T5 sequence (P48729 whole entry): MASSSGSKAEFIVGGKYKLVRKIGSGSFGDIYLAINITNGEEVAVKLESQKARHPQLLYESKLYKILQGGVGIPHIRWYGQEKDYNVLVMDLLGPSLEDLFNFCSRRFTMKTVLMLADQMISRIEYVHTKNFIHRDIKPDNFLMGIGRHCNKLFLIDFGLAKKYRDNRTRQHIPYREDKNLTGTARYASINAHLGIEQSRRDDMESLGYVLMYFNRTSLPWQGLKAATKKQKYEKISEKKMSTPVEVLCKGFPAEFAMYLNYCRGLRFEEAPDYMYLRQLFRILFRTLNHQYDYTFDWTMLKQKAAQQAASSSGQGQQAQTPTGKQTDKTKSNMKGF
T5 sequence (Q96SW2 whole entry): as the sequence (Q96SW2 whole entry) above
T5 sequence (Q16531 whole entry partner): as the sequence (Q16531 whole entry partner) above
T2 sequence (Q13422 whole entry): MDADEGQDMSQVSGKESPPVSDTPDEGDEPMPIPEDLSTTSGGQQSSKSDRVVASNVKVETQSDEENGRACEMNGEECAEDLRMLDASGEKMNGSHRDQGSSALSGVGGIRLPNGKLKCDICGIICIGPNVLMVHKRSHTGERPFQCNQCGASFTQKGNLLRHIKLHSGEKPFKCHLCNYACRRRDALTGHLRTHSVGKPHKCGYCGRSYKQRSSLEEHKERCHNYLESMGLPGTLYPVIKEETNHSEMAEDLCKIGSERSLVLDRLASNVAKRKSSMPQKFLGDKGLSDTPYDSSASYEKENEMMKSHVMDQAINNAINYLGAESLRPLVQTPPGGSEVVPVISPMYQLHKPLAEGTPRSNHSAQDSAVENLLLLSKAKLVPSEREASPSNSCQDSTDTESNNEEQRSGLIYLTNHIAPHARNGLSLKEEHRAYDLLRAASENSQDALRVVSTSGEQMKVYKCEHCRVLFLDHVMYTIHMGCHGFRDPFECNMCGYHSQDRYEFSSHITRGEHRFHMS
T2 sequence (Q96SW2 whole entry): as the sequence (Q96SW2 whole entry) above
T2 sequence (Q16531 whole entry partner): as the sequence (Q16531 whole entry partner) above

inhibition at 0.5 µM [2] | inhibition at 2 µM [2] | Compound | IKZF 1 substrate protein remaining % (IKZF1; [9]) | IKZF3 substrate protein remaining % (IKZF3; [9]) | Wee1 substrate protein remaining % (WEE1; [9]) | CK1α substrate protein remaining % (CK1α; [9]) | IKZF2 substrate protein remaining % (IKZF2; [9]) | GSPT1 substrate protein remaining % (GSPT1; [9]) | inhibition at 0.01 µM [3] | inhibition at 0.5 µM [3] | inhibition at 0.01 µM [4] | inhibition at 0.5 µM [4] | inhibition at 0.01 µM [5] | inhibition at 0.5 µM [5] | IKZF 1 substrate protein remaining % (IKZF1; [10]) | IKZF3 substrate protein remaining % (IKZF3; [10]) | Wee1 substrate protein remaining % (WEE1; [10]) | CK1α substrate protein remaining % (CK1α; [10]) | IKZF2 substrate protein remaining % (IKZF2; [10]) | GSPT1 substrate protein remaining % (GSPT1; [10]) | also measured
30 to 40% | 60 to 80% | Cc1ccc(N2CCN(Cc3cccc4c3CN(C3CCC(=O)NC3=O)C4=S)CC2)c(C)c1 (stereo not drawn) [GT-08504, 3-(4-((4-(2,4-dimethylphenyl)piperazin-1-yl)methyl)-1-thioxoisoindolin-2-yl)piperidine-2,6-dione] | B (80%< substrate protein remaining %≤ 100%) | A (0% ≤ substrate protein remaining % ≤ 80%) | A (0% ≤ substrate protein remaining % ≤ 80%) | B (80%< substrate protein remaining %≤ 100%) | B (80%< substrate protein remaining %≤ 100%) | A (0% ≤ substrate protein remaining % ≤ 80%) | 40 to 60% | 40 to 60% | 20 to 30% | 40 to 50% | 30 to 40% | 50 to 60% | – | – | – | – | – | – | –
60 to 80% | 80 to 100% | O=C1CCC(N2Cc3c(CN4CCN(c5n[nH]c6cc(F)ccc56)CC4)cccc3C2=S)C(=O)N1 (stereo not drawn) [GT-08840, 3-(4-((4-(6-fluoro-1H-indazol-3-yl)piperazin-1-yl)methyl)-1-thioxoisoindolin-2-yl)piperidine-2,6-dione] | B (80%< substrate protein remaining %≤ 100%) | B (80%< substrate protein remaining %≤ 100%) | A (0% ≤ substrate protein remaining % ≤ 80%) | B (80%< substrate protein remaining %≤ 100%) | B (80%< substrate protein remaining %≤ 100%) | B (80%< substrate protein remaining %≤ 100%) | 40 to 60% | 40 to 60% | 50 to 60% | 60 to 70% | – | – | – | – | – | – | – | – | –
53 to 60% | 80 to 100% | O=C1CCC(N2Cc3c(CN4CC(C5CCOc6cc(F)ccc65)C4)cccc3C2=S)C(=O)N1 (stereo not drawn) [GT-08859, 3-(4-((3-(7-fluorochroman-4-yl)azetidin-1-yl)methyl)-1-thioxoisoindolin-2-yl)piperidine-2,6-dione] | – | – | – | – | – | – | – | – | 50 to 60% | 40 to 50% | 30 to 40% | 50 to 60% | B (80%< substrate protein remaining %≤ 100%) | B (80%< substrate protein remaining %≤ 100%) | B (80%< substrate protein remaining %≤ 100%) | B (80%< substrate protein remaining %≤ 100%) | B (80%< substrate protein remaining %≤ 100%) | A (0% ≤ substrate protein remaining % ≤ 80%) | –
60 to 80% | 80 to 100% | Cc1cc(N2CCN(Cc3ccc4c(c3)CN(C3CCC(=O)NC3=O)C4=S)CC2)cc(C)n1 (stereo not drawn) [GT-09247, 3-(5-((4-(2,6-dimethylpyridin-4-yl)piperazin-1-yl)methyl)-1-thioxoisoindolin-2-yl)piperidine-2,6-dione] | – | – | – | – | – | – | 40 to 60% | 40 to 60% | 20 to 30% | 40 to 50% | 50 to 60% | – | – | – | – | – | – | – | Inhibition Rate at 500 nM (%) ([5]; MM.1S, 500 nM, 96 hours): la7

More lines, now with the values behind:

Compound | inhibition at 0.5 µM [2] | inhibition at 2 µM [2] | IKZF 1 substrate protein remaining % (IKZF1; [9]) | IKZF3 substrate protein remaining % (IKZF3; [9]) | Wee1 substrate protein remaining % (WEE1; [9]) | CK1α substrate protein remaining % (CK1α; [9]) | IKZF2 substrate protein remaining % (IKZF2; [9]) | GSPT1 substrate protein remaining % (GSPT1; [9]) | inhibition at 0.01 µM [3] | inhibition at 0.5 µM [3] | inhibition at 0.01 µM [4] | inhibition at 0.5 µM [4] | inhibition at 0.01 µM [5] | inhibition at 0.5 µM [5] | IKZF 1 substrate protein remaining % (IKZF1; [10]) | IKZF3 substrate protein remaining % (IKZF3; [10]) | Wee1 substrate protein remaining % (WEE1; [10]) | CK1α substrate protein remaining % (CK1α; [10]) | IKZF2 substrate protein remaining % (IKZF2; [10]) | GSPT1 substrate protein remaining % (GSPT1; [10]) | also measured
O=C1CCC(N2Cc3c(CN4CCN(C(c5ccccc5)c5ccncc5)CC4)cccc3C2=S)C(=O)N1 (stereo not drawn) [GT-08204, 3-(4-((4-(phenyl(pyridin-4-yl)methyl)piperazin-1-yl)methyl)-1-thioxoisoindolin-2-yl)piperidine-2,6-dione] | 40 to 53% | 80 to 100% | B (80%< substrate protein remaining %≤ 100%) | B (80%< substrate protein remaining %≤ 100%) | A (0% ≤ substrate protein remaining % ≤ 80%) | B (80%< substrate protein remaining %≤ 100%) | B (80%< substrate protein remaining %≤ 100%) | B (80%< substrate protein remaining %≤ 100%) | – | – | – | – | – | – | – | – | – | – | – | – | inhibition at 0.01 µM [1, 7]: 60 to 70%; inhibition at 0.5 µM [1, 8]: 70 to 80%
O=C1CCC(N2Cc3c(CN4CCC(N5CCc6cc(F)ccc65)CC4)cccc3C2=S)C(=O)N1 (stereo not drawn) [GT-08845, 3-(4-((4-(5-fluoroindolin-1-yl)piperidin-1-yl)methyl)-1-thioxoisoindolin-2-yl)piperidine-2,6-dione] | 40 to 53% | 80 to 100% | B (80%< substrate protein remaining %≤ 100%) | B (80%< substrate protein remaining %≤ 100%) | A (0% ≤ substrate protein remaining % ≤ 80%) | B (80%< substrate protein remaining %≤ 100%) | B (80%< substrate protein remaining %≤ 100%) | A (0% ≤ substrate protein remaining % ≤ 80%) | – | – | 50 to 60% | 60 to 70% | 20 to 30% | 40 to 50% | – | – | – | – | – | – | –
O=C1CCC(N2Cc3c(CN4CCC(N5C(=O)COc6cc(F)ccc65)CC4)cccc3C2=S)C(=O)N1 (stereo not drawn) [GT-08853, 3-(4-((4-(7-fluoro-3-oxo-2,3-dihydro-4H-benzo[b][1,4]oxazin-4-yl)piperidin-1-yl)methyl)-1-thioxoisoindolin-2-yl)piperidine-2,6-dione] | 60 to 80% | 80 to 100% | – | – | – | – | – | – | – | – | 5 to 10% | 40 to 50% | 30 to 40% | 40 to 50% | B (80%< substrate protein remaining %≤ 100%) | A (0% ≤ substrate protein remaining % ≤ 80%) | B (80%< substrate protein remaining %≤ 100%) | B (80%< substrate protein remaining %≤ 100%) | B (80%< substrate protein remaining %≤ 100%) | B (80%< substrate protein remaining %≤ 100%) | –
Cn1cc(C2CCN(Cc3ccc4c(c3)CN(C3CCC(=O)NC3=O)C4=S)CC2)c2ccc(F)cc21 (stereo not drawn) [GT-09267, 3-(5-((4-(6-fluoro-1-methyl-1H-indol-3-yl)piperidin-1-yl)methyl)-1-thioxoisoindolin-2-yl)piperidine-2,6-dione] | 53 to 60% | 80 to 100% | – | – | – | – | – | – | 80 to 100% | 80 to 100% | 5 to 10% | 70 to 80% | 70 to 80% | 80 to 100% | A (0% ≤ substrate protein remaining % ≤ 80%) | A (0% ≤ substrate protein remaining % ≤ 80%) | A (0% ≤ substrate protein remaining % ≤ 80%) | B (80%< substrate protein remaining %≤ 100%) | A (0% ≤ substrate protein remaining % ≤ 80%) | A (0% ≤ substrate protein remaining % ≤ 80%) | inhibition at 0.01 µM [6, 7]: 80 to 100%; inhibition at 0.5 µM [6, 8]: 80 to 100%
O=C1CCC(N2Cc3cc(CN4CCC(N5CCCc6cc(F)ccc65)CC4)ccc3C2=S)C(=O)N1 (stereo not drawn) [GT-09271, 3-(5-((4-(6-fluoro-3,4-dihydroquinolin-1(2H)-yl)piperidin-1-yl)methyl)-1-thioxoisoindolin-2-yl)piperidine-2,6-dione] | 60 to 80% | 80 to 100% | – | – | – | – | – | – | 40 to 60% | 40 to 60% | 20 to 30% | 40 to 50% | – | – | – | – | – | – | – | – | –
